According to PMC12844124, “Synthesis and Study of Substituted Chalcones Combined with Fluoroazobenzenes—New Photoswitches for Application in Biological Systems” (Molecules, 2026):

Key:
[1] = Changes over time of Z to E transition by 19F NMR; type: physicochemical; conditions: light 505 nm, 100 mM in DMSO
Description: We can observe that for electromagnetic radiation in the range of wavelengths 390 nm to 610 nm, transitions from E to Z of about 0–76% are obtained. The best results for all compounds are in visible wavelengths 505 nm or 525 nm (30.59–75.44%). From analyzing Figure 2 we can draw the following conclusions: all synthesized compounds undergo switching under visible light (this is important because UV radiation can damage the DNA of cells, inhibiting replication and, as a result, preventing cell division). For the 2,6-difluoro substituents (17i), (17j), (17k), and (17l) with values of 74.84%, 73.2%, 74.39%, and 75.44%, respectively, the largest share of the Z configuration is at (525 nm) and, for the rest of (17a), (17b), (17c), (17e), (17f), and (17g), it is in range of 30.57–47.13% at 505 nm. […] Multiple cycles of photoreversible switching under alternating green and blue light irradiation, with no significant photobleaching or degradation, confirmed the repeatable and robust photochromic conversion of the synthesized azobenzenes (Figure 2b). Then we measured changes over time (transitions from Z to E, upon irradiation with 505 nm for (17a–17c) and (17e–17g), and 525 nm for (17i–17l) compounds (Figure 3, and see Section S4.3 in Supplementary Materials).

[2] = UV–VIS spectra of E/Z isomers in DMSO; type: physicochemical; conditions: for Δ λmax n→π*: between E and Z isomers
Experimental: For this purpose, the UV–VIS spectra were measured for all synthesized hybrids (17a–17l) at concentrations from 20 to 500 µM in dimethyl sulfoxide (DMSO) in light at λ 505 nm and for (17a–17c), (17e–17g), and (17i–17l) at λ 525 nm, respectively, as detailed in Table 1 (see Section S4.4 in Supplementary Materials).

Z isomer, changes over time ([1]; 0 h)	Z isomer, changes over time ([1]; 1 h)	Z isomer, changes over time ([1]; 2 h)	Z isomer, changes over time ([1]; 3 h)	Z isomer, changes over time ([1]; 4 h)	Z isomer, changes over time ([1]; 5 h)	Z isomer, changes over time ([1]; 6 h)	Z isomer, changes over time ([1]; 7 h)	Z isomer, changes over time ([1]; 8 h)	Δ (Z to E change 0 h to 8 h) [1]	εmax (n→π*) ([2]; E isomer)	λmax n→π* (E) ([2]; E isomer)	εmax (n→π*) ([2]; Z isomer)	λmax n→π* (Z) ([2]; Z isomer)	Δ λmax n→π* [2]	SMILES
32.44%	31.33%	30.37%	29.4%	28.74%	27.66%	26.82%	26.38%	26.02%	6.42%	–	–	–	–	–	COc1ccc(/C=C/C(=O)c2cccc(/N=N/c3ccc(F)cc3)c2)cc1OC [Compound 17a]
32.38%	32.21%	30.2%	29.69%	28.37%	26.74%	25.21%	24.74%	24.03%	8.35%	688 dm^3·mol^−1·cm^−1	442.1 nm	898 dm^3·mol^−1·cm^−1	434.0 nm	8.1 nm	COc1cc(/C=C/C(=O)c2cccc(/N=N/c3ccc(F)cc3)c2)cc(OC)c1 [Compound 17b]
30.59%	30.16%	28.28%	27.14%	25.95%	25.61%	25.18%	24.05%	23.17%	7.42%	–	–	–	–	–	COc1cc(/C=C/C(=O)c2cccc(/N=N/c3ccc(F)cc3)c2)cc(OC)c1OC [Compound 17c]
46.84%	45.35%	45.18%	44.16%	43.55%	43.39%	43.01%	42.31%	42.17%	4.67%	–	–	–	–	–	COc1ccc(/C=C/C(=O)c2cccc(/N=N/c3ccc(F)cc3F)c2)cc1OC [Compound 17e]
47.13%	46.61%	45.77%	44.72%	44.28%	43.95%	43.3%	42.6%	41.87%	5.26%	872 dm^3·mol^−1·cm^−1	441.9 nm	1150 dm^3·mol^−1·cm^−1	427.9 nm	14.0 nm	COc1cc(/C=C/C(=O)c2cccc(/N=N/c3ccc(F)cc3F)c2)cc(OC)c1 [Compound 17f]
44.82%	43.69%	42.89%	42.36%	41.25%	40.61%	40.5%	39.88%	38.78%	6.04%	–	–	–	–	–	COc1cc(/C=C/C(=O)c2cccc(/N=N/c3ccc(F)cc3F)c2)cc(OC)c1OC [Compound 17g]
